From the supplement of paper PMC10307832

What was measured:
Experiment in all cases: relative viability (nuclei count vs DMSO), 5 days (fraction); higher = more cells survive
[1] = compound: C1CC(C2=C(C1)C3=C(N2)C=CC(=C3)Cl)C(=O)N [Selisistat] + NC(=O)Nc1cc(-c2cccc(F)c2)sc1C(=O)N[C@H]1CCCNC1 [AZD7762] (partner 0.2 µM)
Procedure, shortened: (§1)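 Lung cancer cell lines in 1536-well plates got either a single drug or a fixed anchor-drug dose together with five library-drug doses (not always all listed) in √10 steps, by pin tool, on the day after seeding. Nuclei were counted after 5 days, and relative viability is the treated-to-vehicle ratio of nuclei counts. Values are medians of duplicate plates.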

[2] = compound: C1CC(C2=C(C1)C3=C(N2)C=CC(=C3)Cl)C(=O)N [Selisistat] + O=C(c1cc(Cc2n[nH]c(=O)c3ccccc23)ccc1F)N1CCN(C(=O)C2CC2)CC1 [Olaparib] (partner 8 µM)
Procedure, shortened: as §1

[3] = compound: c1ccc2c(CCNc3ccc(Nc4ccncc4)cc3)c[nH]c2c1 [Serdemetan] + COc1cc2c(Oc3ccc(NC(=O)C4(C(=O)Nc5ccc(F)cc5)CC4)cc3F)ccnc2cc1OCCCN1CCOCC1 [Foretinib] (partner 0.25 µM)
Procedure, shortened: as §1

[4] = compound: c1ccc2c(CCNc3ccc(Nc4ccncc4)cc3)c[nH]c2c1 [Serdemetan] + C[C@@H](Oc1cc(-c2cnn(C3CCNCC3)c2)cnc1N)c1c(Cl)ccc(F)c1Cl [Crizotinib] (partner 1 µM)
Procedure, shortened: as §1

Cell Line	relative viability ([1]; first compound 0.4 µM)	relative viability ([1]; first compound 1.265 µM)	relative viability ([1]; first compound 4 µM)	relative viability ([1]; first compound 12.65 µM)	relative viability ([1]; first compound 40 µM)	relative viability ([2]; first compound 0.4 µM)	relative viability ([2]; first compound 1.265 µM)	relative viability ([2]; first compound 4 µM)	relative viability ([2]; first compound 12.65 µM)	relative viability ([2]; first compound 40 µM)	relative viability ([3]; first compound 0.04 µM)	relative viability ([3]; first compound 0.1265 µM)	relative viability ([3]; first compound 0.4 µM)	relative viability ([3]; first compound 4 µM)	relative viability ([4]; first compound 0.04 µM)	relative viability ([4]; first compound 0.1265 µM)	relative viability ([4]; first compound 0.4 µM)	relative viability ([4]; first compound 1.265 µM)	relative viability ([4]; first compound 4 µM)	relative viability ([3]; first compound 1.265 µM)
NCI-H1975	0.684	0.661	0.581	0.647	0.646	0.765	0.728	0.776	0.653	0.605	0.866	0.849	0.982	0.987	0.91	0.934	0.937	0.804	0.99	–
NCI-H1993	0.793	0.791	–	0.954	0.816	1.06	1.07	–	1.15	1.03	0.888	0.813	0.692	0.672	0.951	0.944	0.86	–	0.734	0.76
NCI-H2085	1.06	1.02	0.67	0.992	0.983	0.818	0.771	0.766	0.824	0.855	1	0.899	1	0.533	0.688	0.817	0.733	0.627	0.561	0.936
NCI-H2087	1.31	1.14	–	1.19	1.25	0.748	0.684	–	0.573	0.553	1.01	0.92	0.858	0.355	1.14	0.746	0.699	0.426	0.487	0.447
NCI-H2126	1.04	1.04	0.992	1.03	1.03	0.981	0.922	0.904	0.921	0.934	1.23	1.13	1.03	1.03	1.02	1.07	0.944	0.734	1	1.01
NCI-H2170	0.868	0.939	0.82	0.854	0.911	0.596	0.581	0.647	0.585	0.664	1.02	0.97	1.05	1.14	1.13	1.16	1.16	1.22	1.22	0.637
NCI-H2347	0.733	0.66	–	0.774	0.795	0.719	0.622	–	0.605	0.621	1.08	0.831	0.89	0.604	0.673	0.699	0.674	0.506	0.0688	0.954
NCI-H2405	0.718	0.732	–	0.725	0.678	0.899	0.909	–	0.769	0.882	1.03	1.01	1.01	0.764	0.81	0.781	0.818	0.763	0.608	0.902
NCI-H3122	1.03	0.95	–	1.04	1	0.661	0.661	–	0.556	0.649	0.992	0.932	0.972	1.01	0.292	0.241	0.28	–	0.237	–
PC-3 [JPC-3]	0.834	0.861	–	0.744	0.695	1.13	1.1	–	1.02	1.07	0.98	1	0.946	1.06	0.947	0.94	–	1.02	1.03	1.09
PC-14	0.381	0.344	0.226	0.278	0.36	0.252	0.201	0.186	0.204	0.29	0.862	0.939	0.376	1.1	0.899	0.87	0.793	0.649	0.745	0.83
RERF-LC-KJ	0.932	0.765	0.823	0.898	0.877	0.962	0.916	0.844	0.828	0.839	0.836	0.884	0.786	0.887	0.763	0.818	0.718	0.705	0.753	0.79
